Measured values from US10647680B2, “Urea compound, preparation method therefor and medical use thereof” (Ancureall Pharmaceutical (Shanghai) Co., Ltd., priority 2016, dated 2020).

Assays:
Type in all cases: cell-based
[1] = tested on: NCI-H1581 (FGFR1 amp); assay: In vitro growth inhibition (GI50), NCI-H1581; settings: Homo sapiens
Excerpt: (§1) Tumor cell line is an effective cell model for studying the inhibition of tumor cell growth or proliferation in vitro. In the present invention, a representative tumor cell line was selected to determine the cell growth inhibition activity of the present compound. All cell lines used were from ATCC, DSMZ, and the Cell Bank of the Chinese Academy of Sciences. Cell culture conditions and methods were in accordance with the requirements of each cell line. Cells were subcultured in vitro for no more than 3 passages each time, and as required, single-clone purification and identification of cell lines could be carried out.
(§2) The cell culture media used were RPMI1640 (Gibco), MEM (Gibco), McCOY'S5A (Gibco), and IMDM (Gibco). The complete medium was prepared by supplement with 5˜20% fetal calf serum (Gibco), 1% double-antibiotics (10000 units/mL penicillin and 10000 units/mL), 2 mM glutamine or 1 mM sodium pyruvate, respectively.
Human non-small cell lung cancer cell NCI-H1581 (FGFR1 amp, ATCC) is an FGFR1 gene amplified/overexpressed tumor cell line. It was cultured in complete medium comprising 1×RPMI1640 with 10% FBS.
(§3) Adherent cells were digested with 0.25% pancreatin-EDTA (Gibco). The suspension cells were collected by centrifugation. The supernatant was discarded and the cell pellet was resuspended and counted. Different cell concentrations (5˜10×10^4 cells/mL) were prepared according to the growth cycle of each cell line and then seeded on a 96-well plate (Corning), 100 μL/well. The cells were incubated overnight at 37° C., 5% CO2. The compounds were added to the cells on the second day with 2 wells in parallel. The final concentration of organic solvent shall not exceed 1%. The cells were continually incubated for 3 to 5 days, and then subjected to MTT assay.
(§4) The compound of the present invention and the control compound were dissolved in DMSO (Sigma) respectively, with the purity of more than 98%. The compound was stored in a concentration of 10 mM at −20° C. and diluted to 2- or 10-fold series prior to use.
(§5) Dojindo CCK8 reagent kit was used as MTT assay. THERMO […] FC meter was used as microplate reader.
(§6) For adherent cells, culture medium was removed and immediately replaced with the fresh prepared medium which contains 10% CCK8 reagent (100 μL/well). For the suspension cells, CCK8 was directly added to 10% of the final concentration. The cells were continually incubated for 1˜4 h. When a dark yellow color could be observed in the solvent control wells, the absorbance value at OD450 nm was measured and the cell growth rate was calculated according to the following formula: Cell Growth Rate (%)=100*(T−T0)/(C−T0) T=optical density of drug treatment cell well—optical density of blank control well; T0=optical density of cell well before drug treatment—optical density of blank control well; C=optical density of cell well of solvent control group—optical density of blank control well. The concentration value of 50% inhibition of cell growth (GI50) was calculated according to the drug concentration and cell growth rate curve. The experiment was independently repeated 1˜3 times, and subject to biological statistical analysis. 4. Experimental Results
(§7) Tumor cell growth inhibition test was performed by selecting representative compounds (compounds 4, 11, 12, 16, 27, 68, 71, 77, 79, 89 and 116 of the present invention). The initial concentration of the compound was 5,000 nM, then it was serially diluted by 2-fold or 10-fold to 0.01 nM. The GI50 value of each test compound was calculated according to the GI50 assay and calculation method. The experiments were repeated 1 to 3 times, and data were subjected to biological statistical analysis.

[2] = tested on: RAMOS (positive expression of Brutons tyrosine protein kinase); assay: In vitro growth inhibition (GI50), RAMOS; settings: Homo sapiens, Cell lines of leukemia, read-out: GI 50 Ramos BTK
[3] = tested on: MKN-45 (c-MET amp); assay: In vitro growth inhibition (GI50), MKN-45; settings: Homo sapiens; MKN-45, cMET Amp+
Excerpt: as §1, §2
The human gastric cancer cell line MKN-45 (c-MET amp, ATCC) and the non-small cell lung cancer cell line NCI-H1993 (c-MET amp, ATCC) were cultured in complete medium comprising 1×RPMI1640 and 10% FBS, respectively.
as §3, §4, §5, §6, §7

[4] = tested on: SH-SY5Y (expressing ALK F1174L mutant protein); assay: In vitro growth inhibition (GI50), SH-SY5Y; settings: Homo sapiens
Excerpt: as §1, §2
Human non-small cell lung cancer cell line NCI-H2228 (expressing EML4-ALK fusion gene, ATCC) and human anaplastic large cell lymphoma cell line Karpas-299 (expressing NPM-ALK fusion gene, ATCC) were cultured in complete medium comprising 1×RPMI1640 (10% FBS), respectively. Neuroblastoma cell line SH-SY5Y (expressing ALK F1174L mutant protein, Shanghai Cell Bank, Chinese Academy of Sciences) was cultured in MEM complete medium (1×MEM, 10% FBS, 1% NEAA, 1 mM sodium pyruvate).
as §3, §4, §5, §6, §7

SMILES	GI50 [1] [nM]	GI50 [2] [nM]	GI50 [3] [nM]	GI50 [4] [nM]
COCCOc1ccc2c(c1)ncn2-c1ccc(NC(=O)Nc2cc(C(C)(C)C)n[nH]2)cc1 [Compound 77, 1-(5-tert-butyl-2H-pyrazol-3-yl)-3-{4-[5-(2-methoxyl-ethoxyl)-benzimidazol-1-yl]-phenyl}-urea]	> 2500	> 1000	> 2500	> 2500
CC(C)(C)c1cc(NC(=O)Nc2ccc(-n3cnc4cc(OCCN5CCOCC5)ccc43)cc2)[nH]n1 [Compound 89, 1-(5-tert-butyl-2H-pyrazol-3-yl)-3-{4-[5-(2-morpholin-4-yl-ethoxyl)-benzimidazol-1-yl]-phenyl}-urea]	> 2500	> 1000	> 2500	> 2500
CC(C)(C)c1cc(NC(=O)Nc2ccc(-n3cnc4cc(O)ccc43)cc2)no1 [Compound 4, 1-(5-tert-butyl-isoxazol-3-yl)-3-[4-(5-hydroxy-benzimidazol-1-yl)-phenyl]-urea]	> 2500	100 to 1000	> 2500	> 2500
COc1ccc2c(c1)ncn2-c1ccc(NC(=O)Nc2cc(C(C)(C)C)n[nH]2)cc1 [Compound 71, 1-(5-tert-butyl-2H-pyrazol-3-yl)-3-[4-(5-methoxyl-benzimidazol-1-yl)-phenyl]-urea]	> 2500	> 1000	> 2500	> 2500
CC(C)(C)c1cc(NC(=O)Nc2ccc(-n3cnc4cc(OCCO)ccc43)cc2)no1 [Compound 11, 1-(5-tert-butyl-isoxazol-3-yl)-3-{4-[5-(2-hydroxy-ethoxyl)-benzimidazol-1-yl]-phenyl]-urea]	> 2500	> 1000	> 2500	> 2500

Now from value to compound:

GI50 [1] [nM]	GI50 [2] [nM]	GI50 [3] [nM]	GI50 [4] [nM]	SMILES
> 2500	> 1000	> 2500	> 2500	CC(C)(C)c1cc(NC(=O)Nc2ccc(-n3cnc4cc(OCCO)ccc43)cc2)[nH]n1 [Compound 79, 1-(5-tert-butyl-2H-pyrazol-3-yl)-3-{4-[5-(2-hydroxy-ethoxyl)-benzimidazol-1-yl]-phenyl]urea]
> 2500	> 1000	> 2500	> 2500	CC(C)(C)c1cc(NC(=O)Nc2ccc(-n3cnc4ccccc43)cc2)[nH]n1 [Compound 68, 1-(4-benzimidazol-1-yl-phenyl)-3-(5-tert-butyl-2H-pyrazol-3-yl)-urea]
> 2500	> 1000	> 2500	> 2500	CC(C)(C)c1cc(NC(=O)Nc2ccc(-n3cnc4cc(OCCN5CCOCC5)ccc43)cc2)no1 [Compound 16, 1-(5-tert-butyl-isoxazol-3-yl)-3-{4-[5-(2-morpholin-4-yl-ethoxyl)-benzimidazol-1-yl]-phenyl}-urea]
> 2500	> 1000	> 2500	> 2500	CC(C)(C)c1cc(N)n(C(=O)Nc2ccc(-n3cnc4ccccc43)cc2)n1 [Compound 116, 5-amino-3-tert-butyl-pyrazol-1-carboxylic acid (4-benzimidazol-1-yl-phenyl)-amide]
> 2500	> 1000	> 2500	> 2500	CC(C)(C)c1cc(NC(=O)Nc2ccc(-n3cnc4ccc(OCCN5CCOCC5)cc43)cc2)no1 [Compound 27, 1-(5-tert-butyl-isoxazol-3-yl)-3-{4-[6-(2morpholin-4-yl-ethoxyl)-benzimidazol-1-yl]-phenyl}-urea]
